What was measured:
Assay type in all cases: cell-based
[1] = system: Staphylococcus haemolyticus 415; test: MIC, standard broth micro-dilution assay, SH 415; set-up: unit not given here
Procedure: (§1) The antibacterial efficacy of the present compounds is illustrated by Table II. The minimal inhibitory concentrations (MICs) were determined using a standard broth micro-dilution assay.

[2] = system: Streptococcus pneumoniae P1; test: MIC, standard broth micro-dilution assay, SPN P1; set-up: unit not given here
Procedure: as §1

[3] = system: Staphylococcus aureus 489; test: MIC, standard broth micro-dilution assay, SA 489; set-up: unit not given here
Procedure: as §1

[4] = system: Enterococcus faecium and faecalis (SENSITIVE); test: MIC, standard broth micro-dilution assay, SENSITIVE enterococci; set-up: unit not given here; settings: geometric mean of 4-6 isolates
Procedure: as §1

[5] = system: Streptococcus pyogenes C203; test: MIC, standard broth micro-dilution assay, SPY C203; set-up: unit not given here
Procedure: as §1

[6] = system: Enterococcus faecium and faecalis (RESISTANT); settings: geometric mean of 4-6 isolates
Procedure: as §1

[7] = system: Staphylococcus epidermidis 270; test: MIC, standard broth micro-dilution assay, SE 270; set-up: unit not given here
Procedure: as §1

[8] = system: Staphylococcus aureus 447; test: MIC, standard broth micro-dilution assay, SA 447; set-up: unit not given here
Procedure: as §1

[9] = system: Staphylococcus aureus 446; test: MIC, standard broth micro-dilution assay, SA 446; set-up: unit not given here
Procedure: as §1

[10] = system: Staphylococcus haemolyticus 105; test: MIC, standard broth micro-dilution assay, SH 105; set-up: unit not given here
Procedure: as §1

| SMILES | Minimal Inhibitory Concentration (MIC) SH 415 [1] | Minimal Inhibitory Concentration (MIC) SPN P1 [2] | Minimal Inhibitory Concentration (MIC) SA 489 [3] | Minimal Inhibitory Concentration (MIC) SENSITIVE [4] | Minimal Inhibitory Concentration (MIC) SPY C203 [5] | Minimal Inhibitory Concentration (MIC) RESISTANT [6] | Minimal Inhibitory Concentration (MIC) SE 270 [7] | Minimal Inhibitory Concentration (MIC) SA 447 [8] | Minimal Inhibitory Concentration (MIC) SA 446 [9] | Minimal Inhibitory Concentration (MIC) SH 105 [10] |
| --- | --- | --- | --- | --- | --- | --- | --- | --- | --- | --- |
| C[C@@H]1O[C@@H](O[C@H]2[C@H](Oc3c4cc5cc3Oc3ccc(cc3Cl)[C@@H](O[C@H]3C[C@](C)(N)[C@@H](O)[C@H](C)O3)[C@@H]3NC(=O)[C@H](NC(=O)[C@@H]5NC(=O)[C@H](CC(N)=O)NC(=O)[C@H](NCc5ccc(O)cc5)[C@H](O)c5ccc(c(Cl)c5)O4)c4ccc(O)c(c4)-c4c(O)cc(O)cc4[C@@H](C(=O)O)NC3=O)O[C@H](CO)[C@@H](O)[C@@H]2O)C[C@](C)(N)[C@H]1O [Example 13, N^1 -(p-HYDROXYBENZYL)-DESLEUCYL-A82846B] | > 64 | ≤ .06 | 8 | 4 | 0.25 | 54 | 32 | 32 | 16 | > 64 |
| C[C@@H]1O[C@@H](O[C@H]2[C@H](Oc3c4cc5cc3Oc3ccc(cc3Cl)[C@@H](O[C@H]3C[C@](C)(N)[C@@H](O)[C@H](C)O3)[C@@H]3NC(=O)[C@H](NC(=O)[C@@H]5NC(=O)[C@H](CC(N)=O)NC(=O)[C@H](NCCCCCCc5ccccc5)[C@H](O)c5ccc(c(Cl)c5)O4)c4ccc(O)c(c4)-c4c(O)cc(O)cc4[C@@H](C(=O)O)NC3=O)O[C@H](CO)[C@@H](O)[C@@H]2O)C[C@](C)(N)[C@H]1O [Example 14, N^1 -(6-PHENYL-n-HEXYL)DESLEUCYL-A82846B] | 8 | ≤ .06 | 8 | 37 | ≤ .06 | > 50 | 8 | 8 | 16 | 8 |
| C[C@@H]1O[C@@H](O[C@H]2[C@H](Oc3c4cc5cc3Oc3ccc(cc3Cl)[C@@H](O[C@H]3C[C@](C)(N)[C@@H](O)[C@H](C)O3)[C@@H]3NC(=O)[C@H](NC(=O)[C@@H]5NC(=O)[C@H](CC(N)=O)NC(=O)[C@H](NCc5ccc(-c6cc(C(F)(F)F)cc(C(F)(F)F)c6)cc5)[C@H](O)c5ccc(c(Cl)c5)O4)c4ccc(O)c(c4)-c4c(O)cc(O)cc4[C@@H](C(=O)O)NC3=O)O[C@H](CO)[C@@H](O)[C@@H]2O)C[C@](C)(N)[C@H]1O [Example 22, N^1 -(p-(3,5-BIS-(TRIFLUOROMETHYL)-PHENYL)BENZYL)-DESLEUCYL-A82846B] | 2 | ≤ .06 | 1 | 4.6 | ≤ .06 | 9.5 | 2 | 2 | 2 | 1 |
| C[C@@H]1O[C@@H](O[C@@H]2c3ccc(c(Cl)c3)Oc3cc4cc(c3O[C@@H]3O[C@H](CO)[C@@H](O)[C@H](O)[C@H]3O[C@H]3C[C@](C)(NCc5ccc(-c6ccccc6)cc5)[C@@H](O)[C@H](C)O3)Oc3ccc(cc3Cl)[C@@H](O)[C@@H](NCc3ccc(-c5ccccc5)cc3)C(=O)N[C@@H](CC(N)=O)C(=O)N[C@H]4C(=O)N[C@H]3C(=O)N[C@@H]2C(=O)N[C@H](C(=O)O)c2cc(O)cc(O)c2-c2cc3ccc2O)C[C@](C)(N)[C@H]1O [Example 4, N^1,N^DISACC -BIS(p-PHENYLBENZYL)-DESLEUCYL-A82846B] | 2 | ≤ .06 | 2 | 21 | ≤ .06 | 53 | 2 | 2 | 4 | 2 |
| C[C@@H]1O[C@@H](O[C@H]2[C@H](Oc3c4cc5cc3Oc3ccc(cc3Cl)[C@@H](O[C@H]3C[C@](C)(N)[C@@H](O)[C@H](C)O3)[C@@H]3NC(=O)[C@H](NC(=O)[C@@H]5NC(=O)[C@H](CC(N)=O)NC(=O)[C@H](NCCCCCCCCc5ccccc5)[C@H](O)c5ccc(c(Cl)c5)O4)c4ccc(O)c(c4)-c4c(O)cc(O)cc4[C@@H](C(=O)O)NC3=O)O[C@H](CO)[C@@H](O)[C@@H]2O)C[C@](C)(N)[C@H]1O [Example 19, N^1 -(8-PHENYL-n-OCTYL)DESLEUCYL-A82846B] | 2 | 0.5 | 1 | 254 | 0.5 | 45 | 4 | 1 | 2 | 2 |
| C[C@@H]1O[C@@H](O[C@@H]2c3ccc(c(Cl)c3)Oc3cc4cc(c3O[C@@H]3O[C@H](CO)[C@@H](O)[C@H](O)[C@H]3O[C@H]3C[C@](C)(NCc5ccc(-c6ccccc6)cc5)[C@@H](O)[C@H](C)O3)Oc3ccc(cc3Cl)[C@@H](O)[C@@H](NCc3ccccc3)C(=O)N[C@@H](CC(N)=O)C(=O)N[C@H]4C(=O)N[C@H]3C(=O)N[C@@H]2C(=O)N[C@H](C(=O)O)c2cc(O)cc(O)c2-c2cc3ccc2O)C[C@](C)(N)[C@H]1O [Example 5, N^1 -BENZYL-N^DISACC -(p-PHENYLBENZYL)-DESLEUCYL-A82846B] | 2 | 0.5 | 2 | 9.2 | 0.125 | 23 | 2 | 2 | 2 | 2 |
| C[C@@H]1O[C@@H](O[C@@H]2c3ccc(c(Cl)c3)Oc3cc4cc(c3O[C@@H]3O[C@H](CO)[C@@H](O)[C@H](O)[C@H]3O[C@H]3C[C@](C)(NCc5ccc(-c6ccccc6)cc5)[C@@H](O)[C@H](C)O3)Oc3ccc(cc3Cl)[C@@H](O)[C@@H](NCc3ccc(O)cc3)C(=O)N[C@@H](CC(N)=O)C(=O)N[C@H]4C(=O)N[C@H]3C(=O)N[C@@H]2C(=O)N[C@H](C(=O)O)c2cc(O)cc(O)c2-c2cc3ccc2O)C[C@](C)(N)[C@H]1O [Example 17, N^1 -(p-HYDROXYBENZYL)-N^DISACC -(p-PHENYLBENZYL)-DESLEUCYL-A82846B] | 1 | ≤ .06 | 1 | 2.6 | ≤ .06 | 27 | 0.5 | 0.5 | 1 | 0.5 |
| C[C@@H]1O[C@@H](O[C@@H]2c3ccc(c(Cl)c3)Oc3cc4cc(c3O[C@@H]3O[C@H](CO)[C@@H](O)[C@H](O)[C@H]3O[C@H]3C[C@](C)(NCc5ccc(-c6ccc(Cl)cc6)cc5)[C@@H](O)[C@H](C)O3)Oc3ccc(cc3Cl)[C@@H](O)[C@@H](NCCCCCCc3ccccc3)C(=O)N[C@@H](CC(N)=O)C(=O)N[C@H]4C(=O)N[C@H]3C(=O)N[C@@H]2C(=O)N[C@H](C(=O)O)c2cc(O)cc(O)c2-c2cc3ccc2O)C[C@](C)(N)[C@H]1O [Example 28, N^1 -(6-PHENYL-n-HEXYL)-N^DISACC -(p-(p-CHLOROPHENYL)BENZYL)DESLEUCYL-A82846B] | 2 | 16 | 8 | 7 | 4 | 6.7 | 4 | 8 | 8 | 4 |
| CCCCCCN[C@H]1C(=O)N[C@@H](CC(N)=O)C(=O)N[C@H]2C(=O)N[C@H]3C(=O)N[C@H](C(=O)N[C@H](C(=O)O)c4cc(O)cc(O)c4-c4cc3ccc4O)[C@H](O[C@H]3C[C@](C)(NCCCCCC)[C@@H](O)[C@H](C)O3)c3ccc(c(Cl)c3)Oc3cc2cc(c3O[C@@H]2O[C@H](CO)[C@@H](O)[C@H](O)[C@H]2O[C@H]2C[C@](C)(NCCCCCC)[C@@H](O)[C@H](C)O2)Oc2ccc(cc2Cl)[C@H]1O [Example 8, N^1,N^DISACC,N^MONOSACC -TRI-n-HEXYLDESLEUCYL-A82846B] | 16 | 2 | 8 | 55 | 1 | 76 | 8 | 8 | 16 | 4 |

Reference: patent US5977063A, “Alkylated hexapeptides” (Eli Lilly and Company, priority 1998, dated 1999)
